In patent publication US8952073B2, “Estrogenic compounds, process for their production and pharmaceutical uses thereof” (The University of Ottawa, priority 2008, dated 2015):
Where “and” joins values, the source holds several entries; their conditions need not be identical. Equal values may be shown once. Read-outs that look alike come from different tables or passages of the source.

Experiments:
ERβ vs. ERα = details: literature values; cited from earlier work
ERα [1] = target: T1, ERα (Homo sapiens, UniProt P03372); experiment: Relative binding affinity (RBA), radiolabel competition assay, estrogen alpha receptor; details: for RBAα: estradiol=100; for RBA for ERα: relative to estradiol (set at 100%)
T1 sequence (P03372 1-595): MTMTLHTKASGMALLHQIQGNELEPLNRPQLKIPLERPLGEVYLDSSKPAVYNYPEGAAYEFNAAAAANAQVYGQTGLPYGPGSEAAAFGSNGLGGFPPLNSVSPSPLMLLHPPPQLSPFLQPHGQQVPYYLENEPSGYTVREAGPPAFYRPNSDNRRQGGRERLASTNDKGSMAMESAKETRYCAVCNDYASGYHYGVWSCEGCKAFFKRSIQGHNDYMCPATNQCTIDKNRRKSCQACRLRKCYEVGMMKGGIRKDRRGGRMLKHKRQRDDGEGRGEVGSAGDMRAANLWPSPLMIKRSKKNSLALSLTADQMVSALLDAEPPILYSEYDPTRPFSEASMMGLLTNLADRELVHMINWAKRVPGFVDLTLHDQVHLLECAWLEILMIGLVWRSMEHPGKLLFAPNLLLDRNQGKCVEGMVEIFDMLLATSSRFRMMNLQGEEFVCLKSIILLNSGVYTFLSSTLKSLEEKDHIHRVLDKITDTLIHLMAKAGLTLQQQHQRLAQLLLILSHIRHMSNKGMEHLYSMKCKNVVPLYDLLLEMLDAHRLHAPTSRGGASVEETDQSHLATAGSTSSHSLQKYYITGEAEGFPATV

ERβ [2] = target: T2, ERβ (Homo sapiens, UniProt Q92731); experiment: Relative binding affinity (RBA), radiolabel competition assay, estrogen beta receptor; details: for RBAβ: estradiol=100; for RBA for ERβ: relative to estradiol (set at 100%)
T2 sequence (Q92731 whole entry): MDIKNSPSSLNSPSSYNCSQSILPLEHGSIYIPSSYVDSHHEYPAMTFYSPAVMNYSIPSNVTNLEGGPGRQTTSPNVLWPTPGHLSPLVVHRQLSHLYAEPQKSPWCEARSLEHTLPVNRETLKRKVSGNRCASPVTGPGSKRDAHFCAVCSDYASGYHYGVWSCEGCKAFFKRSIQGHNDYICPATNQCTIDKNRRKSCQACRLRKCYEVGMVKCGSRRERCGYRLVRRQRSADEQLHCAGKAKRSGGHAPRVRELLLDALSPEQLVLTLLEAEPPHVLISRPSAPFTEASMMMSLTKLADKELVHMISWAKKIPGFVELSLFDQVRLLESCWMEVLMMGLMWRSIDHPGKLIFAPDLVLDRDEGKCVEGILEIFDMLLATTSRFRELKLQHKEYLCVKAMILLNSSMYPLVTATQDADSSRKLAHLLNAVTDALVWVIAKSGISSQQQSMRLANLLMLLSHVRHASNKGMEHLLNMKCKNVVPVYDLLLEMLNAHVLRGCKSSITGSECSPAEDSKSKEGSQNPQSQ

ERα [3] = target: T1, ERα; experiment: Relative transcription assay (RTA), estrogen response element driven luciferase, estrogen alpha receptor; assay type: cell-based; details: for RTAα: relative transcription activity, estradiol=100
ERβ [4] = target: T2, ERβ; experiment: Relative transcription assay (RTA), estrogen response element driven luciferase, estrogen beta receptor; assay type: cell-based; details: for RTAβ: relative transcription activity, estradiol=100; for hormonal potency / transcriptional activation at ERβ, in words: result in words
intact hepatocytes = details: read-out: LC50, 2 hour exposure
[5] = ring C saturated compounds, natural stereochemistry at C9
[6] = double bond in ring C (C9-C11 or C9-C8), tested as mixtures except entries 16, 17, 19, 20, 25, 26
[7] = double bond in ring C, mixtures except entries 16, 17, 19, 20, 25, 26
[8] = 9-hydroxy compounds, natural stereochemistry at C9

For `C=Cc1cc(O)cc2nc(-c3ccc(O)c(F)c3)oc12` [ERB-041], the “binding affinity ERβ/ERα ratio” value (ERβ vs. ERα) is listed as 226.
With `C[C@]12CC[C@H](c3ccc(O)cc3)CC1CC[C@@H]2O` (stereo partly drawn) [Entry 1] the RBAα (ERα [1]; [5]) was 1.5, the “RBA for ERα” value (ERα [1]) was 1.7% and 1.5% and the “selective binding, favouring ERβ by a factor” value (ERβ [2]; ERβ over ERα) was 15. The RBAβ (ERβ [2]; [5]) was 21.5, the “RBA for ERβ” value (ERβ [2]) was 21.5% and the RBAβ/RBAα (ERβ [2]; [5]) was 14.6. The RTAα (ERα [3]) was 4.3, the RTAα (ERα [3]; listed as 1*) was −8.9 and the “Ratio RTAβ/RTAα” value (ERβ [4]) was 38. It also gave an RTAβ (ERβ [4]) of 164, an RTAβ (ERβ [4]; listed as 1*) of 7.7 and a CC50 at 2 h (in vitro; intact hepatocytes) of 320 to 400 µM.
For `C[C@]12CC[C@H](c3ccc(O)c(F)c3)CC1CC[C@@H]2O` (stereo partly drawn) [Entry 2], the RBAα (ERα [1]; [5]) was 1.0, the “RBA for ERα” value (ERα [1]) was 1.0% and the RBAβ (ERβ [2]; [5]) was 8.7. For the same molecule, the “RBA for ERβ” value (ERβ [2]) was 8%, the RBAβ/RBAα (ERβ [2]; [5]) was 8.7 and the RTAα (ERα [3]) was −8.3. For the same molecule, the RTAβ (ERβ [4]) was 14, the “hormonal potency / transcriptional activation at ERβ, in words” value (ERβ [4]) was “weak agonist for ERβ” and the CC50 at 2 h (in vitro; intact hepatocytes) was 400 to 450 µM.
In the case of `C[C@]12CC[C@H](c3ccc(O)cc3F)CC1CC[C@@H]2O` (stereo partly drawn) [Entry 3], the RBAα (ERα [1]; [5]) is reported as 27.3, the RBAβ (ERβ [2]; [5]) is reported as 135.5 and the “RBA for the ERβ receptor compared with estradiol, in words” value (ERβ [2]; result in words) is reported as “exceeded that of estradiol itself”. For the same molecule, the RBAβ/RBAα (ERβ [2]; [5]) was 5.0, the RTAα (ERα [3]) was 44 and the “transcriptional activation at ERα, in words” value (ERα [3]; result in words) was “both an ERα and an ERβ agonist”. For the same molecule, the “Ratio RTAβ/RTAα” value (ERβ [4]) was 3.6, the RTAβ (ERβ [4]) was 162 and the “hormonal potency / transcriptional activation at ERβ, in words” value (ERβ [4]) was “both an ERα and an ERβ agonist”. The CC50 at 2 h (in vitro; intact hepatocytes) was 250 to 280 µM.
Molecule `C[C@]12CC[C@H](c3cc(F)c(O)c(F)c3)CC1CC[C@@H]2O` (stereo partly drawn) [Entry 4] has an RBAα (ERα [1]; [5]) of 0.4, an RBAβ (ERβ [2]; [5]) of 0.28 and an RBAβ/RBAα (ERβ [2]; [5]) of 7.0.
`C[C@]12CC[C@H](c3ccc(O)c(F)c3F)CC1CC[C@@H]2O` (stereo partly drawn) [Entry 5] showed an RBAα (ERα [1]; [5]) of 4.6, an RBAβ (ERβ [2]; [5]) of 42.8 and an RBAβ/RBAα (ERβ [2]; [5]) of 9.3. The RTAα (ERα [3]) was 18, the “Ratio RTAβ/RTAα” value (ERβ [4]) was 8.4 and the RTAβ (ERβ [4]) was 151. For the same molecule, the CC50 at 2 h (in vitro; intact hepatocytes) was 155 to 200 µM.
With `C[C@]12CC[C@H](c3cc(F)c(O)c(F)c3F)CC1CC[C@@H]2O` (stereo partly drawn) [Entry 7] the RBAα (ERα [1]; [5]) was 0.19, the RBAβ (ERβ [2]; [5]) was 1.73 and the “further reduction in binding, factor” value (ERβ [2]; in comparison with entry 3) was “about 10”. For the same molecule, the RBAβ/RBAα (ERβ [2]; [5]) was 9.1, the RTAα (ERα [3]) was 11 and the “Ratio RTAβ/RTAα” value (ERβ [4]) was 4.8. The RTAβ (ERβ [4]) was 53, the CC50 (intact hepatocytes) was greater than 600 µM and the CC50 at 2 h (in vitro; intact hepatocytes) was greater than 600 µM.
In the case of `C[C@]12CC[C@H](c3ccc(O)cc3Cl)CC1CC[C@@H]2O` (stereo partly drawn) [Entry 8], the RBAα (ERα [1]; [5]) is reported as 55.3, the RTAα (ERα [3]) is reported as 88 and the RTAβ (ERβ [4]) is reported as 188.
For `Cc1cc(O)ccc1[C@H]1CC[C@@]2(C)C(CC[C@@H]2O)C1` (stereo partly drawn) [Entry 9], the RBAα (ERα [1]; [5]) was 2.8, the RBAβ (ERβ [2]; [5]) was 33.6 and the RBAβ/RBAα (ERβ [2]; [5]) was 11.9. For the same molecule, the RTAα (ERα [3]) was −9.7 and the RTAβ (ERβ [4]) was 149.
Work on `C[C@]12CC=C(c3cc(F)c(O)cc3F)CC1CC[C@@H]2O` (stereo partly drawn) [Entry 16] yielded an RBAα (ERα [1]; [6]) of 0.44, an RBAβ/RBAα (ERβ [2]; [7]) of 5.1 and an RBAβ (ERβ [2]; [6]) of 2.6.
With `C[C@]12CCC(c3cc(F)c(O)cc3F)=CC1CC[C@@H]2O` (stereo partly drawn) [Entry 17] the RBAα (ERα [1]; [6]) was 0.38, the RBAβ/RBAα (ERβ [2]; [7]) was 6.8 and the RBAβ (ERβ [2]; [6]) was 3.3.
`C[C@]12CC=C(c3ccc(O)cc3Cl)CC1CC[C@@H]2O` (stereo partly drawn) [Entry 19] gave an RBAα (ERα [1]; [6]) of 60, an RBAβ/RBAα (ERβ [2]; [7]) of 2.0 and an RBAβ (ERβ [2]; [6]) of 118. The RTAα (ERα [3]) was 120, the “Ratio RTAβ/RTAα” value (ERβ [4]) was 1.6 and the RTAβ (ERβ [4]) was 157.
`C[C@]12CCC(c3ccc(O)cc3Cl)=CC1CC[C@@H]2O` (stereo partly drawn) [Entry 20] gave an RBAα (ERα [1]; [6]) of 195, an RBAβ/RBAα (ERβ [2]; [7]) of 1.7 and an RBAβ (ERβ [2]; [6]) of 331. For the same molecule, the RTAα (ERα [3]) was 98, the “Ratio RTAβ/RTAα” value (ERβ [4]) was 2.1 and the RTAβ (ERβ [4]) was 188.
Work on `C[C@]12CC=C(c3ccc(O)cc3CCSCc3ccccc3)CC1CC[C@@H]2O` (stereo partly drawn) [Entry 25] yielded an RBAα (ERα [1]; [6]) of 0.32, an RBAβ/RBAα (ERβ [2]; [7]) of 2.2 and an RBAβ (ERβ [2]; [6]) of 0.76.
`C[C@]12CCC(c3ccc(O)cc3CCSCc3ccccc3)=CC1CC[C@@H]2O` (stereo partly drawn) [Entry 26] showed an RBAα (ERα [1]; [6]) of 0.31, an RBAβ/RBAα (ERβ [2]; [7]) of 0.86 and an RBAβ (ERβ [2]; [6]) of 0.27. For the same molecule, the RTAα (ERα [3]) was 6.7, the “Ratio RTAβ/RTAα” value (ERβ [4]) was 2.2 and the RTAβ (ERβ [4]) was 15.6.
`C[C@]12CC[C@](O)(c3ccc(O)cc3)CC1CC[C@@H]2O` (stereo partly drawn) [Entry 27] showed an RBAα (ERα [1]; [8]) of 0.01, an RBAβ/RBAα (ERβ [2]; [8]) of 10 and an RBAβ (ERβ [2]; [8]) of 0.1.
Molecule `C[C@]12CC[C@](O)(c3ccc(O)c(F)c3)CC1CC[C@@H]2O` (stereo partly drawn) [Entry 28] has an RBAα (ERα [1]; [8]) of 0.009, an RBAβ/RBAα (ERβ [2]; [8]) of 13 and an RBAβ (ERβ [2]; [8]) of 0.12.
In the case of `C[C@]12CC[C@](O)(c3ccc(O)cc3F)CC1CC[C@@H]2O` (stereo partly drawn) [Entry 29], the RBAα (ERα [1]; [8]) is reported as 0.17, the “decrease in binding affinity” value (ERβ [2]; 9-hydroxy compound compared to the saturated analog) is reported as 37 fold and the RBAβ/RBAα (ERβ [2]; [8]) is reported as 21. The RBAβ (ERβ [2]; [8]) was 3.6.
For `C[C@]12CC[C@](O)(c3cc(F)c(O)c(F)c3)CC1CC[C@@H]2O` (stereo partly drawn) [Entry 30], the RBAα (ERα [1]; [8]) was 0.005, the RBAβ/RBAα (ERβ [2]; [8]) was 4.6 and the RBAβ (ERβ [2]; [8]) was 0.023.
Work on `C[C@]12CC[C@@H]3c4ccc(O)cc4CC[C@H]3[C@@H]1CC[C@@H]2O` [Estradiol, 17β-estradiol, reference compound] yielded an RTAβ (ERβ [4]) of 100 and a CC50 at 2 h (in vitro) of 400 to 450 µM.
In the case of `N#Cc1cc(-c2ccc(O)c(F)c2)cc2ccc(O)cc12` [WAY 202196], the “binding affinity ERβ/ERα ratio” value (ERβ vs. ERα) is given as 78.
